Measurements reported in BindingDB's records for doi:10.1074/jbc.M113.519421 (University of Michigan, 2014).

Target: T1, Serine/threonine-protein phosphatase 5 (Homo sapiens, UniProt P53041)
T1 sequence (P53041 whole entry): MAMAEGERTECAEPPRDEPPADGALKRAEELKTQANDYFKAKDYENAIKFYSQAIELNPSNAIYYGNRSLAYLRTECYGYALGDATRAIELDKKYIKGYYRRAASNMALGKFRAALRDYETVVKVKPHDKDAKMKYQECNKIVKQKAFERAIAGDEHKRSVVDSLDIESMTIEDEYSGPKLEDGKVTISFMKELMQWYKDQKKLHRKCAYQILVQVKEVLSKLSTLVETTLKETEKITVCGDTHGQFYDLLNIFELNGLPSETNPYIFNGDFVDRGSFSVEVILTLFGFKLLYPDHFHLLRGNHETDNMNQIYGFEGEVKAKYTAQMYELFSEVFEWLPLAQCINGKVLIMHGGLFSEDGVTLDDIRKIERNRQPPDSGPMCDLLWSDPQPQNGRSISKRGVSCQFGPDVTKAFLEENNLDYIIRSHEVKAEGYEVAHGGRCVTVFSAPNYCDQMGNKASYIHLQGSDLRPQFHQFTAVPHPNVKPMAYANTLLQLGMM
Assay: Fluorescence Polarization Assay
Conditions: pH 7.4; 25 °C
Experimental: All fluorescence polarization experiments were conducted in 384-well, black, low volume, round-bottomed plates (Corning) using a BioTeck Synergy 2 plate reader (Winooski, VT). For binding experiments, to each well was added increasing amounts of protein and the 5-carboxyfluorescein-labeled Hsp70/90 C-terminal probe/tracer (20 nM). […] The plate was allowed to incubate at room temperature for 5 min toreach equilibrium. […] An equilibrium binding isotherm was constructed by plotting the fluorescence polarization reading as a function of the protein concentration at a fixed concentration of tracer (20 nM).

Molecule	Kd
H-DVEEM-OH [DVEEM]	> 10000 nM
CC[C@H](C)[C@H](NC(=O)[C@@H](NC(=O)[C@@H]1CCCN1C(=O)CNC(=O)[C@H](CO)NC(=O)[C@@H](N)CO)[C@@H](C)O)C(=O)N[C@@H](CCC(=O)O)C(=O)N[C@@H](CCC(=O)O)C(=O)N[C@H](C(=O)N[C@@H](CC(=O)O)C(=O)O)C(C)C	1060 nM
CSCC[C@H](NC(=O)[C@@H](NC(=O)[C@@H]1CCCN1C(=O)CNC(=O)[C@H](CO)NC(=O)CN)[C@@H](C)O)C(=O)N[C@@H](CCC(=O)O)C(=O)N[C@@H](CCC(=O)O)C(=O)N[C@H](C(=O)N[C@@H](CC(=O)O)C(=O)O)C(C)C	133 nM
CC[C@H](C)[C@H](N)C(=O)N[C@@H](CCC(=O)O)C(=O)N[C@@H](CCC(=O)O)C(=O)N[C@H](C(=O)N[C@@H](CC(=O)O)C(=O)O)C(C)C [IEEVD]	426 nM
H-DDTSRIEEVD-OH	420 nM
CSCC[C@H](NC(=O)[C@H](CCCNC(=N)N)NC(=O)[C@H](CO)NC(=O)[C@H](C)NC(=O)[C@H](CC(=O)O)NC(=O)[C@@H](N)CCC(=O)O)C(=O)N[C@@H](CCC(=O)O)C(=O)N[C@@H](CCC(=O)O)C(=O)N[C@H](C(=O)N[C@@H](CC(=O)O)C(=O)O)C(C)C	77 nM
